Usually solubility (kinetic) stands for the concentration staying in solution when a stock, usually in DMSO, is diluted into the medium.

Where two headings read alike, the source gives them in different places. Bounds are passed on as bounds.

The text below walks through data of publication PMC8152814, “The modulatory role of sulfated and non-sulfated small molecule heparan sulfate-glycomimetics in endothelial dysfunction: absolute structural clarification, molecular docking and simulated dynamics, SAR analyses and ADMET studies” (RSC Medicinal Chemistry, 2021).

One data set relates to nitric oxide (NO). Briefly: NO release assay (DAF-2) in FFA-stressed cells. Type of data set: cell-based, human. The following applies: averaged % of increase (+) or decrease (−) compared to control (FFA induced oxidatively stressed endothelial cells), n = 3. The source says: The assays focused on the production of nitric oxide (NO) and the upregulation of nitric oxide synthase (eNOS), the production of reactive oxygen species (ROS) and the activity of nicotinamide adenine dinucleotide phosphate (NADPH) oxidase (Table 2). From the hypothesised model of heparan sulfate-glycomimetic activity,[17] the glycomimetics are proposed to attenuate the binding of HGF to the cMET receptor. This disruption to MET-receptor activation is proposed to modulate intracellular phosphorylation leading to an upregulation of eNOS and increased output of extracellular NO. […] Overall, the cross examination of NO output and reduction of ROS was used to determine the therapeutic action of the triaged glycomimetics α-4, R-10, S-10 and β-5, as well as 3 non-sulfated intermediates α-2, α-3 and β-3, on free fatty acid (FFA) induced, oxidatively stressed endothelial cell cultures (Table 2).
Biological assay and AMDET experimental details […]
Preparation of FFA-albumin complexes and cell treatments
To generate the in vitro model of oxidative stress, sodium palmitate was bound to bovine serum albumin (BSA) as outlined by Chavez and Summers,S2 with modifications. Sodium palmitate (FFA) was dissolved in EtOH at 60 °C and diluted 1:100 in M199 media supplemented with 2% fatty acid-free bovine serum albumin (BSA) and incubated for 1 h at 37 °C. HepG2 cells were treated with 1 μmol/L of the synthesized HS-glycomimetics in the presence of palmitate (100 μmol/L) for 3 h or pre-treated with glycomimetics for 12 h followed by 3 h palmitate (100 μmol/L). Control cells were incubated in serum free M199 containing 2% (wt/vol) fatty acid-free BSA.
NO release assay and Quantification of ROS production
NO release was determined using diaminofluorescein-2 (DAF-2).S3 The cells were washed with PBS and incubated with L-arginine (100 μmol/L in PBS) for 5 min at 37 °C before incubation with DAF-2 (0.1 μmol/L) for 2 min, followed by the calcium ionophore calimycin (A23187, 1 μmol L) for 30 min. L-NAME (100 μmol/L), a nitric oxide inhibitor (NOS), was also added 20 min before the addition of L-arginine in some experiments to determine the involvement of NOS. DAF-2 fluorescence (arbitrary units, AU) was quantified using a microplate reader (BioTek) with excitation and emission wavelengths of 485 nm and 540 nm, respectively. The auto-fluorescence was subtracted from each value. […]
H2DCFDA, Sigma) for 30 min at 37 °C, and the level of fluorescence was determined (excitation 490 nm; emission 540 nm) using a microplate reader (BioTek).
The level of NADPH-enhanced superoxide anions (O2•−) in HepG2 homogenates was determined by lucigenin-enhanced chemiluminescence.S4 Following the various treatment conditions, cells were homogenized in a buffer (20 mmol/L H2KPO4 and 1 mmol/L EDTA supplemented with aprotinin, leuprotinin, pepstatin and PMSF). The total protein quantified using the Bicinchoninic acid (BCA) assay (Pierce Biotechnology). To 50 μg of total protein, NADPH (100 μmol/L) was added in a total volume of 500 μL, with lucigenin (5 μmol/L) and was injected automatically. Activity was determined by measuring luminescence over 200 s in a scintillation counter (Lumat LB 9507, Berthold, Germany). Basal values of NADPH oxidase activity were subtracted from the experimental values and expressed as RLU/min/μg protein […]
In situ quantification of ROS species
Superoxide dismutase (SOD) and catalase (CAT) activity assays, and in situ detection of vascular ROS content. The activity of the enzymes, SOD and CAT, was determined in cell homogenates using assay kits according to the manufacturer's instructions (Cayman; Cat No 706002 and 707002 respectively). A unit of SOD was defined as the amount of enzyme […]
Similarly, a unit of CAT was […]
defined as the amount required to form 1.0 nmol of formaldehyde per min at 25 °C.S5

The nature of the next data set: Chemical stability. Type of data set: physicochemical. The source says:
| column: α-4; β-5; R-10; S-10

Data set [1] in a line: Turbidimetric kinetic aqueous solubility. The format is physicochemical. How it is done:
Physicochemical and ADMET properties of representative glycomimetics. […] The cells were incubated for 30 min in Hepes-buffered solution containing 10 μmol/L dihydroethidium (DHE), which intercalates with DNA in the presence of ROS and is detectable by fluorescence. Cells were counterstained with the nuclear stain DAPI at 0.3 μmol/L. In the following 24 h, the cell cultures were examined using a fluorescence microscope (Leica DMIRB). Sections were photographed and fluorescence was quantified using ImageJ. All parameters (pinhole, contrast, gain and offset) were held constant for all sections from the same experiment. ROS production was estimated from the ratio of ethidium/DAPI fluorescence.S6 Western blot analysis HepG2 wells were lysed in RIPA buffer containing proteinase inhibitors and the total protein was quantified using BCA protein assay kit (Pierce Biotechnology). Proteins (30 μg/well) were denatured and separated by sodium dodecyl sulfate (SDS)-polyacrylamide gel electrophoresis and transferred to polyvinylidene difluoride (PVDF) membranes. Blots were blocked for 1 h in 5% semi-skimmed milk/Tris-Buffered Saline Tween-20 (TBS-T), probed with primary rabbit anti-phospho-protein kinase B (Akt), rabbit anti-Akt (Santa Cruz Biotechnology), rabbit polyclonal anti-phospho-eNOS (Cell Signaling) overnight at 4 °C followed by washing and incubation with the corresponding horse radish peroxidase-labelled secondary antibody for 1 h at room temperature. After washing with TBS-T, membranes were incubated with ECL reagent and visualized (Amersham Pharmacia Biotech). Densitometry analysis using ImageJ© (version 1.32j, NIH) was used to quantify the protein signal.S7 Turbidimetric Aqueous Solubility Test compound (10 mM in DMSO) was serially diluted to give solutions of 0.1, 0.3, 1 and 3 mM in DMSO. Each test compound concentration was then further diluted 1 in 100 in buffer (typically 0.01 M phosphate buffered saline pH 7.4) so that the final DMSO concentration is 1 % and the final test compound concentrations are 1, 3, 10, 30 and 100 µM. The experiment is performed at 37 °C and each concentration is incubated in 7 replicate wells. The plates are incubated for 2 h at 37 °C before the absorbance is measured at 620nm. Nicardipine (pH dependent) and pyrene (pH independent) are included as control compounds. The solubility is estimated from the concentration of test compound that produces an increase in absorbance above vehicle control (1% DMSO in buffer). S11

The mark [2] stands for this setting: phosphate buffered saline, turbidimetric assay, PBS pH 7.4, 37 °C, 2 h, read-out: Kinetic solubility.

Regarding `COC(=O)c1cc(OC[C@@H](COS(=O)(=O)[O-])OS(=O)(=O)[O-])ccc1OCC(COS(=O)(=O)[O-])OS(=O)(=O)[O-].[Na+].[Na+].[Na+].[Na+]` (mixture of isomers) [α-4, sodium 3-(4-((S)-2,3-bis(sulfonatooxy)propoxy)-2-(methoxycarbonyl)phenoxy)propane-1,2-diyl bis(sulfate)], the NO production result in the data set with nitric oxide (NO) is “+110%”. Besides, the Chemical stability result in “Chemical stability” is “Yes”. In data set [1] (setting [2]), the kinetic solubility at 2 h is over 100 µM.

Turning to `O=C([O-])c1cc(OC[C@H](COS(=O)(=O)[O-])OS(=O)(=O)[O-])ccc1OCC(COS(=O)(=O)[O-])OS(=O)(=O)[O-].[Na+].[Na+].[Na+].[Na+].[Na+]` (mixture of isomers) [β-5, sodium 5-((R)-2,3-bis(sulfonatooxy)propoxy)-2-(2,3-bis(sulfonatooxy)propoxy)benzoate], the NO production entry in the data set with nitric oxide (NO) is given as “+62%”. For the same compound, the Chemical stability result in the data set “Chemical stability” is recorded as “Yes”. In data set [1] (setting [2]), the solubility (kinetic) at 2 h was over 100 µM.

As to `COC(=O)c1cc(OC[C@H](COS(=O)(=O)[O-])OS(=O)(=O)[O-])ccc1OCCCCOS(=O)(=O)[O-].[Na+].[Na+].[Na+]` [Compound R-10, sodium (R)-3-(3-(methoxycarbonyl)-4-(4-(sulfonatooxy)butoxy)phenoxy)propane-1,2-diyl bis(sulfate)], the NO production result with nitric oxide (NO) is “+52%”. Also, the Chemical stability entry in “Chemical stability” was “Yes”. Also, the kinetic solubility at 2 h in data set [1] (setting [2]) was over 100 µM.

Consider `COC(=O)c1cc(OC[C@@H](COS(=O)(=O)[O-])OS(=O)(=O)[O-])ccc1OCCCCOS(=O)(=O)[O-].[Na+].[Na+].[Na+]` [Compound S-10, sodium (S)-3-(3-(methoxycarbonyl)-4-(4-(sulfonatooxy)butoxy)phenoxy)propane-1,2-diyl bis(sulfate)], for which, in the data set on nitric oxide (NO), the NO production entry is on record as “+63%”. For the same compound, in “Chemical stability”, the Chemical stability result is listed as “Yes”. The compound further displayed a kinetic solubility at 2 h in data set [1] (pH 7.4) of over 100 µM.
